Measured values: US20250295609A1, “COMPOUND HAVING ANTI-ANDROGEN RECEPTOR ACTIVITY, AND USE THEREOF” (NANJING MINOVA PHARMACEUTICAL CO., LTD., priority 2022, published 2025)
Where two headings read alike, the source gives them in different places.

Tests used:
[1] = test system: human prostate cancer cells LNCaP; assay: Cell viability inhibition assay (CTG) on LNCaP cells in presence of DHT; format: cell-based; conditions: Homo sapiens, 120 h, read-out: Inhibitory activity against human prostate cancer cell LNCaP IC50
Text: Human prostate cancer cells LNCaP and human prostate cancer cells 22Rvl are present in patients with prostate cancer. An androgen, DHT, is able to promote the growth of human prostate cancer cells LNCaP. Using the cell model described above was intended to study the inhibitory effects of the compounds of the present disclosure on the growth of human prostate cancer cells (human prostate cancer cells LNCaP and human prostate cancer cells 22Rvl) in the presence or absence of DHT.
The medium in the culture dish was discarded, and 5 mL of trypsin was added for digestion for about 3 mins. The digestion was stopped by adding 10 mL of a fresh medium. The cells were fully pipetted and transferred to a 15 mL centrifuge tube, and the cells were collected by centrifugation at 1000 rpm for 5 mins. The cells collected by centrifugation were resuspended in 11 mL of a fresh medium. 1 mL of the cells was taken and counted, and the cell viability was detected. The cell density was adjusted to 1×10^4 cells/mL by adding an appropriate amount of the medium. The cells were seeded in a 96-well plate at 200 µL/well, and the plate was incubated overnight in a cell incubator.
After the cells were attached to the well, for the human prostate cancer cells LNCaP group, test compounds (0.1 μM, 0.3 μM, 1 μM, 3 μM, 10 μM, and 30 μM) and DHT (1 nM, inducing the expression of AR) were added to the 96-well plate, and the plate was incubated for another 5 days; for the human prostate cancer cells 22Rvl group, test compounds (0.1 μM, 0.3 μM, 1 μM, 3 μM, 10 μM, and 30 μM) were added to the 96-well plate, and the plate was incubated for another 5 days. […] The 96-well plate was equilibrated at room temperature for 30 mins. The cell viability was detected by using a CTG method. Before detection, CellTiter-Glo® Buffer and a substrate thereof (collectively called CTG reagent) were thawed and equilibrated to room temperature. Then, […] of Buffer was gently mixed with the substrate to form a homogeneous solution. The homogeneous solution was added to the 96-well plate at 100 µL/well, and the 96-well plate was incubated on a shaker for 15 mins. The fluorescence value in each well was then detected. The detection method for the fluorescence value in each well was as follows: after adding the CTG reagent, luminescence detection (integration time: 500 ms) was performed by using a correspondingly equipped multi-mode microplate reader (M200Pro, TECAN, Switzerland) according to the supplier's manual to quantify the effect of the inhibitor on the cell viability. For data analysis, an assay background value was subtracted from all data points, which was determined in wells containing the medium but no cells. Data were processed using the XLfit software (XLfit 5.2., IDBS, UK), and IC50 values of the test compounds were calculated.

[2] = Pharmacokinetic study, single oral administration to SD rats; conditions: for AUC(0-t) / Cmax / Tmax / half-life: male, SD, rat, po, 50 mg/kg
Description: Experimental method: Male SD rats were randomly grouped (3 rats per group), given ad libitum access to water during the assay, fasted for 12 or more hours before administration, and given food 4 hours after administration.
The blood was centrifuged within 60 min of being collected to isolate plasma (centrifuged at 8000 rpm at 2-8° C. for 5 min). After the centrifugation, the plasma was transferred to a 96-well plate or centrifuge tubes, transported in a box with ice, and stored at ≤−15° C. before LC-MS/MS analysis. The drug concentration in the plasma of SD rats was measured by LC-MS/MS bioanalysis, and the plasma concentration-time data were analyzed using WinNonlin™ (Version 8.3, Certara, USA) and a non-compartmental model to evaluate the pharmacokinetic (PK) profiles of the compounds in SD rats.

Row | SMILES | IC50 ([1]; 1 nM DHT, 5 days, CTG) | AUClast in rats (comparison in words) ([2]; SD rats, oral, same dose, FIG. 2) | AUC(0-t) ([2]; plasma) | Cmax ([2]; plasma) | Tmax ([2]; plasma) | half-life ([2]; plasma) | IC50 [1] | AUC(0-t) ([2]; in vivo) | Cmax ([2]; in vivo) | Tmax ([2]; in vivo) | half-life ([2]; in vivo)
1 | COc1ccc(/C=C/C(=O)C2(C(=O)/C=C/c3ccc(OC)c(OC)c3)CCC(F)(F)CC2)cc1OC [Compound 8] | 610 nM | higher AUClast than that of compound 7 | 1010 ng·h/mL | 282 ng/mL | 19.8 min | 94.2 min | – | – | – | – | –
2 | COc1ccc(/C=C/C(=O)C2(C(=O)/C=C/c3ccc(OC)c(OC)c3)CCC(=O)CC2)cc1OC [Compound 7] | – | – | – | – | – | – | 830 nM | 460 ng·h/mL | 298 ng/mL | 11.4 min | 177 min
